The structures appear in SMILES notation. In brackets after ≈: the same amount, converted by molar mass. Entries after “also recorded” stand apart in the source; their conditions may differ.

For one data set, the target named is T1, human CB1R (Homo sapiens, UniProt P21554).
T1 construct: host or cells: CHO cells
Description: cAMP Hunter eXpress GPCR assay, human CB1: inhibition of forskolin-stimulated cAMP in CHO cells. The data set is classed as cell-based. The method, then: (§1) Briefly, cAMP Hunter eXpress Cells were seeded 18-24 h prior to the in a 96-well tissue culture treated assay plate and incubated in 5% CO2 at 37° C. in a humidified incubator. After removal of cell media, agonist compound and forskolin prepared in cell assay buffer was added and incubated at 37° C. The CB1 cAMP assay was stimulated with 20 μM final concentration of forskolin with 40 minutes incubation time. The CB2 cAMP assay was stimulated with 25 μM final concentration of forskolin with 35 minutes incubation time. The assay was stopped by incubation with antibody and working solution for 1 h at room temperature. After over 3 h incubation at room temperature in the dark with enzyme acceptor solution, chemiluminescence was measured on a CLARIOstar plate reader (BMG LABTECH Inc., Cary, NC, USA).

The test system of another data set is Male C57Bl6J mice. Kind of data set: Amphetamine-induced hyperactivity test. The data set is classed as in vivo, mouse. To be noted: compound i.p. 30 min before AMPH 2 mg/kg i.p., vs vehicle. The method, then: Male C57Bl6J mice were evaluated in an activity chamber apparatus for the amphetamine-induced hyperactivity test. […] To determine the effects of Compound 22 on amphetamine-induced hyperactivity, mice were placed in the activity chamber for a 30 min baseline period. At the end of that period, mice were removed from the chamber, dosed intraperitoneally with Compound 22 (1 mg/kg, 3 mg/kg, or 10 mg/kg) or vehicle and returned to the home cage. Thirty minutes after dosing, mice were dosed (ip) with amphetamine (AMPH, 2 mg/kg) and immediately placed into the activity chamber for a one-hour post-dose session.

Another data set in a line: Aqueous solubility. The data set is classed as physicochemical. The note with it: aqueous medium (not further specified). The method, then:
(§2) Detailed characterization data was collected for Compound 22. Primary assays were carried out according to Examples 2 and 3, while other assays were carried out according to standard methods.

In the next data set the target is T2, GPR119 (Homo sapiens, UniProt Q8TDV5).
T2 sequence (Q8TDV5 1-335): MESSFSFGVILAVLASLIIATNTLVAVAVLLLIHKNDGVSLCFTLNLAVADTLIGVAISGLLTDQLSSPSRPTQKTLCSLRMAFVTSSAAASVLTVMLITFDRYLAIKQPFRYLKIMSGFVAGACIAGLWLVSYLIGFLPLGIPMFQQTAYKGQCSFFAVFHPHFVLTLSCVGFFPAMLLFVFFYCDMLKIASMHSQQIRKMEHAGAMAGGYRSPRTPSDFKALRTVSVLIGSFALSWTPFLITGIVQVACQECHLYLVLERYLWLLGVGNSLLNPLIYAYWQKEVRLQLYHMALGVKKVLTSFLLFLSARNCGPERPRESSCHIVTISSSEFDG
Description: Off-target activity GPR119 (agonist, antagonist, PAM modes). The data set is classed as cell-based. The method, then:
as §2

For a further data set, the system named is 168 GPCRs. Description: Broad screening panel gpcrMAX. The note with it: gpcrMAX at 70 nM against 168 GPCRs. The data set is classed as cell-based. The method, then:
as §2

The subject of the next data set is Caco-2. Description: In vitro permeability Caco-2. The data set is classed as in vitro ADME. The method, then: as §2
In general terms: Caco-2 monolayers are a common model of the intestinal barrier.

Another data set in a line: Microsomal stability. The data set is classed as in vitro ADME. The method, then:
as §2

The subject of a further data set is Neurons/Microglia. Description: Cytotoxicity (Neurons/Microglia). The data set is classed as cell-based. The method, then: as §2
In another data set the target is hERG (Homo sapiens, UniProt Q12809). Kind of data set: hERG activity. The method, then:
as §2
In general terms: Block of hERG is tested as a sign of cardiac risk.

The test system of data set [1] is extracellular dopamine (DA) in nucleus accumbens. Description: Microdialysis of nucleus accumbens, extracellular dopamine after AMPH. The data set is classed as in vivo, mouse. The note with it: 10 mg/kg i.p., 40 min before AMPH 2 mg/kg i.p.; n=1/group. The method, then:
For this study, a probe was implanted into the nucleus accumbens (NAc) (FIG. 11A). Following baseline measurements, mice were dosed with vehicle or Compound 22 (10 mg/kg, i.p) followed 40 min later by a single dose of AMPH (2 mg/kg, i.p.). Samples were collected for 2 hr post-dosing. Extracellular dopamine (DA) levels in the dialysate were quantified by HPLC with electrochemical detection (FIG. 11B). […] Compound 22 modulates both spontaneous and reward-related DA release. To confirm these findings in parallel experiments, GPCR-activation based-DA (GRAB-DA) was used, which is a human D2R-GFP chimera sensor that produces fluorescence changes reliably and with sub-second kinetics in response to extracellular DA concentration changes in behaving animals (Sun et al. Cell 2018; 174(2):481-96.e19). Mice were injected with an adeno-associated virus (AAV) carrying GRAB-DA into the (NAc) (FIG. 11C) and allowed to recover for −2 weeks before fiber photometry experiments were performed. In the first pilot experiment, baseline DA release were recorded for 5 min before mice (n=3) were injected with either Compound 22 or vehicle and then recording was continued for 45 min. The rate of spontaneous DA transients was compared in the pre-injection (0-5 min) vs post-injection (35-50 min) periods; there was a significant time x drug interaction: F(1,4)=11.91, P=0.026.

The next data set has as its system DA response to reward. Description: GRAB-DA fiber photometry during operant task for sucrose reward. To be noted: injected 30 min before task, n=3, vs vehicle. The data set is classed as in vivo, mouse. The method, then: In a second experiment, the same mice (n=3) were trained to nose poke a dedicated port to gain access to sucrose reward. During the task, GRAB-DA was used to measure DA release in response to reward. After ˜2 weeks of training, the effect of Compound 22 vs. vehicle on the DA response to reward was examined. On the first day, either drug or vehicle was injected followed by waiting 30 min, and then recording DA during the task. The order of drug vs. vehicle was counterbalanced between mice. […] Thus, Compound 22 appears to be capable of modulating both spontaneous and reward-related DA release.

For the next data set, the target named is human CB2R (Homo sapiens, UniProt P34972). Kind of data set: cAMP Hunter eXpress GPCR assay, human CB2: inhibition of forskolin-stimulated cAMP in CHO cells. The data set is classed as cell-based. More on the design: host or cells: CHO cells. The method, then: as §1
Chain of human CB2R (P34972 whole entry): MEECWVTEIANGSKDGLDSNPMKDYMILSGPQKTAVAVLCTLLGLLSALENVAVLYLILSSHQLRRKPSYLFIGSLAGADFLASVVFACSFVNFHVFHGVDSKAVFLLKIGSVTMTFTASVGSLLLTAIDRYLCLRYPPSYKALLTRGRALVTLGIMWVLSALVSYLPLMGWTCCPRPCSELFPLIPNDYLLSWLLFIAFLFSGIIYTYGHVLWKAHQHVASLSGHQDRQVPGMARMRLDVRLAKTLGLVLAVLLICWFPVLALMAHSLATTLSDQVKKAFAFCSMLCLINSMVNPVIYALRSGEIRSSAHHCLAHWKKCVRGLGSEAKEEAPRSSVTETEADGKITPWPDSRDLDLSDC

T1 sequence (P21554 whole entry): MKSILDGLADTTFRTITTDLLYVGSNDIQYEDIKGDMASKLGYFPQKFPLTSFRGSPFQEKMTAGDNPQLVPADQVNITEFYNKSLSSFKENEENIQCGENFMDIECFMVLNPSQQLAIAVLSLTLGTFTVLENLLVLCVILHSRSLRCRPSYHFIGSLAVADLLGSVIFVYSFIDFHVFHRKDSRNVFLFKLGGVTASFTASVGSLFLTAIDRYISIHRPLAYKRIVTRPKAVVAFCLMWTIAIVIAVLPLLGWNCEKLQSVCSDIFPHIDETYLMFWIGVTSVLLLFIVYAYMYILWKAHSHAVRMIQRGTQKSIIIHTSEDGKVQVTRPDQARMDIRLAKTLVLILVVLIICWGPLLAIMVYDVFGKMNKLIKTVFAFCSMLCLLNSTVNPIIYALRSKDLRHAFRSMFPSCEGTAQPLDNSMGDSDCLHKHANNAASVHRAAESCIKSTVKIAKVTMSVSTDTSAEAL
Chain of hERG (Q12809 whole entry): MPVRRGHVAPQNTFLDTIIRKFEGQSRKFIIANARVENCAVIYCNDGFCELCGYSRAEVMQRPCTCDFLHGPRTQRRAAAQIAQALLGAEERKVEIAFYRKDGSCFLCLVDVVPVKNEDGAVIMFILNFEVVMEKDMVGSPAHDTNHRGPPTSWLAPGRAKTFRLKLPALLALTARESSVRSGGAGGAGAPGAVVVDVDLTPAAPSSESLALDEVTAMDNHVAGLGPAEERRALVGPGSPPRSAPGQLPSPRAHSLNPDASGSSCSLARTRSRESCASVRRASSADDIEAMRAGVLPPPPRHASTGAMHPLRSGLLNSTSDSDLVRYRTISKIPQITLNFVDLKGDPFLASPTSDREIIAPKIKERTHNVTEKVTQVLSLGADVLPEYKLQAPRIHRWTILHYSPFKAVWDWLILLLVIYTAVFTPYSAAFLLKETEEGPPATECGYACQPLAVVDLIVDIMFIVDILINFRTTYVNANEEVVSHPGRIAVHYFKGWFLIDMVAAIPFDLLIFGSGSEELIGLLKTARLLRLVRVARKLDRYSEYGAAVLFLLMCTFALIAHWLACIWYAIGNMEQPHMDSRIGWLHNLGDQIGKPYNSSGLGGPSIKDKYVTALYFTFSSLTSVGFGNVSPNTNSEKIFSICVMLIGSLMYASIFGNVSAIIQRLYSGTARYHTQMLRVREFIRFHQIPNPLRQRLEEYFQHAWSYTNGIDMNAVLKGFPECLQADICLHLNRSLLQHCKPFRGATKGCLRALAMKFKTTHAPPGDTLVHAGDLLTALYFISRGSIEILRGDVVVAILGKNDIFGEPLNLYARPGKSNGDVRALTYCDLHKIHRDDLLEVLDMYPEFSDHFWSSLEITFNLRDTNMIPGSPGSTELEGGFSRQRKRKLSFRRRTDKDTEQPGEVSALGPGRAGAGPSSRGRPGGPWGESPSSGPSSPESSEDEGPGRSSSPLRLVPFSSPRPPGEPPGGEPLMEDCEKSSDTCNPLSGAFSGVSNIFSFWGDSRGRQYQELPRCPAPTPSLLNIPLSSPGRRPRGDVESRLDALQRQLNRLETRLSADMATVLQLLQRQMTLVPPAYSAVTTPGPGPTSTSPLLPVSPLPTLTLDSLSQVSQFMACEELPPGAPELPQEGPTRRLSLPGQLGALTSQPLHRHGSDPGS

The term EC50 denotes the concentration that produces a half-maximal response. A low value points to higher potency in that assay. Usually solubility stands for the concentration that dissolves in the medium under given conditions. Read a high solubility as a readily soluble substance. As usually defined, the IC50 is the concentration at which inhibition is half-maximal. For orientation: melting point means the temperature of the solid-liquid transition. Turning to `CC(C)(CO)c1cc(NC(=O)N2CCCN2c2ccc(C(F)(F)F)cc2)no1` [Compound 22, N-(5-(1-hydroxy-2-methylpropan-2-yl)isoxazol-3-yl)-2-(4-(trifluoromethyl)phenyl)pyrazolidine-1-carboxamide], the melting point was in the range of 142 to 146 °C. Besides, the EC50 on human CB1R is above 10 µM. In the data set on Male C57Bl6J mice, the Amphetamine-induced hyperactivity entry was “reduces the hyperactivity induced by AMPH compared to vehicle controls, with significant reduction at 10 mg/kg; also recorded: able to reduce hyperactivity at doses as low as 0.1 mg/kg, i.p”. Moreover, in the data set “Aqueous solubility”, the concentration in solution (solubility) came to 17.4 µg/mL (≈ 43.6 µM). For the same compound, at GPR119, the EC50 is above 10 µM and the IC50 was above 10 µM. In the data set with 168 GPCRs, the “Activity in broad screening panel” value is “No significant off”. Besides, in the data set on Caco-2, the In vitro permeability entry is given as “High”. For the same compound, the “Microsomal stability, clearance class” value in the data set “Microsomal stability” was “Low clearance”. Also, in the data set “Microsomal stability” (microsomes, read-out: Microsomal stability t ½), the half-life was 2 h. Besides, the “Cytotoxicity (Neurons/Microglia)” value with Neurons/Microglia was “not toxic”. The compound further registered an IC50 at hERG above 10 µM. Also, the “Extracellular DA release after AMPH dosing” value in data set [1] was “reduced extracellular DA release after AMPH dosing”. In the data set on DA response to reward, the “Ability to perform task and maximum reward-induced DA release” value was “not a significant effect on the ability of mice to perform this task or the maximum reward-induced DA release”; the “DA response curve to sucrose reward” value is “appeared to widen the DA response curve”. The EC50 at human CB2R (Activity in primary assay: CB2 EC50, Table 6, hCB2 cAMP, agonist mode, mean of n = 3-5 expts on ≥2 batches) was 0.067 µM. Further, the “Selectivity (related family)” value at human CB2R (CB1/CB2 cAMP) is given as 150 fold selectivity. Besides, the “Selectivity (pathway)” value on human CB2R (CB2 cAMP/CB2 beta-arrestin) is listed as 9 fold selectivity. On human CB2R (cAMP assay, CP-55940 as full agonist control), the “CB2 agonist character (in words)” value is “potent agonists of CB2”. Moreover, the “Selectivity for CB2 over CB1 (in words)” value at human CB2R (cAMP assays hCB1 vs hCB2) is “selective for CB2 over CB1”.

Values taken from patent US20240158384A1, “CB2 RECEPTOR AGONISTS” (The Board of Trustees of the Leland Stanford Junior …, priority 2020, published 2024).
